Assay results: patent US20240240226A1, “FLUOROGENIC ASSAY FOR RAPID SCREENING OF BACTERIAL BETA-LACTAMASE ACTIVITY” (The Board of Trustees of the Leland Stanford Junior …, priority 2021, published 2024)

Legend:
E. coli/TEM-1 = experiment: CDA detection of live E. coli expressing TEM-1 Bla; format: cell-based
Description: FIG. 3 illustrates the characterization of CDA with HRP, H2O2, E. coli expressing TEM-1 Bla (E. coli/TEM-1) and IMP-1 carbapenemase (E. coli/IMP-1), and K. pneumoniae expressing KPC carbapenemase (K. pneumoniae/KPC). a) Fluorescence enhancement of CDA incubated with different concentrations of E. coli expressing TEM-1 Bla. b) Fluorescence enhancement of CDA; HRP (1 unit/mL), H2O2 (1 μM), and either viable E. coli expressing TEM-1 Bla or bacterial lysate extracted from equal c.f.u. per milliliter. c) Fluorescence enhancement of CDA incubated with different concentrations of E. coli expressing TEM-1 Bla (H2O2, 1 mM). d) Fluorescent intensity of E. coli and E. coli/TEM-1 preincubated with CDA for 20 hours upon addition of H2O2 (500 μM) for 5 min. Error bars represent ±SD, n=3. * p<0.0332; **p<0.0021, ****p<0.0001, ns: not significant. e) Fluorescence enhancement of CDA incubated with different concentrations of E. coli expressing IMP-1 carbapenemase in the presence of H2O2 (1 mM). f) Fluorescence enhancement of CDA incubated with different concentrations of K. pneumoniae expressing KPC carbapenemase (H2O2, 1 mM). […] Data were collected on a Tecan Safire microplate reader with excitation at 570 nm and emission at 600 nm. […]
It was studied if CDA could report β-lactamase activity in live E. coli and Klebsiella pneumoniae (K. pneumoniae) which are commonly found in many infections. Three transformed E. coli strains expressing the most clinically prevalent β-lactamases including TEM-1 Bla (E. coli/TEM-1) and two carbapenemases were evaluated: a metallo-β-lactamase IMP-1 (E. coli/IMP-1) and a unique class A β-lactamase KPC-3 (E. coli/KPC-3) that hydrolyze carbapenem antibiotics. […]
To address the question of whether a higher concentration of H2O2 would equilibrate across membranes of viable bacteria and accelerate the oxidation of processed CDA, a serial dilution of H2O2 (100 μM, 500 μM, 1 mM, 2 mM) was incubated with CDA and different concentrations of E. coli and E. coli/TEM-1 for a longitudinal reading (FIGS. 3c, 21b, and 22). […]

E. coli/KPC-3 = experiment: CDA/H2O2 detection of live E. coli expressing KPC-3 carbapenemase; format: cell-based; conditions: CDA 10 μM, H2O2 1 mM, room temperature
Description: FIG. 23 illustrates the fluorescence enhancement of CDA incubated with different concentrations of E. coli expressing KPC-3 carbapenemase in PBS at room temperature; CDA, 10 μM, and H2O2, 1 mM. The signal of CDA in H2O2 was subtracted and the absolute values were plotted. Data were collected on a Tecan Safire microplate reader with excitation at 570 nm and emission at 600 nm. A.U. indicates arbitrary units.
Factoring the 100 μL assay volume, as low as 100 bacteria in one 96 well were detectable with the assay. A concentration of H2O2 at 1-2 mM efficiently oxidized the processed CDA to resorufin inside E. coli. Next, the assay was used to detect E. coli/IMP-1 and E. coli/KPC-3 (FIGS. 3e and 23). E. coli/IMP-1 was detected at […] within 2 hours, and E. coli/KPC-3 could be reliably detected at around 10^5-10^6 c.f.u./mL.
Bacteria growth and assay: E. coli (BL21 or TOP10) transformed to express TEM-1 Bla, IMP-1, and KPC3 were grown in LB medium and induced with 0.2% arabinose for 6-8 h at 30° C., 205 rpm. Colony forming units per milliliter (c.f.u./mL) were determined by measuring the UV absorbance at OD600.
For CDA incubation, 10 μM working solution was prepared freshly by diluting stock solution (1 mM in pure DMSO) in PBS (pH 7.05). A light-safe tube or foil wrap was used to prevent photobleaching.

CC(=O)Oc1ccc2c(c1)Oc1cc(OC(C)=O)ccc1N2C(=O)OCc1ccc(SCC2=C(C(=O)O)N3C(=O)[C@@H](NC(=O)Cc4ccccc4)[C@H]3SC2)cc1 [CDA, 3-(((4-(((3,7-diacetoxy-10H-phenoxazine-10-carbonyl)oxy)methyl)phenyl)thio)methyl)-8-oxo-7-(2-phenylacetamido)-5-thia-1-azabicyclo[4.2.0]oct-2-ene-2-carboxylic acid]
effect of adding HRP and H2O2 on fluorescence with viable bacteria (E. coli/TEM-1; HRP 1 unit/mL, H2O2 1 μM, bacteria not lysed): contributed little to the fluorescence increase | number of bacteria detectable in one 96 well (E. coli/TEM-1; factoring the 100 μL assay volume): 100 bacteria | bacteria concentration detectable (E. coli/TEM-1; noninduced E. coli/TEM-1, H2O2 1 mM, within 2-3 hours): 10^6-10^7 c.f.u./mL | bacteria concentration reliably detected (E. coli/KPC-3): 10^5-10^6 c.f.u./mL
